# From patent US20250295798A1, “LIGAND-DRUG CONJUGATE OF EXATECAN ANALOGUE, AND MEDICAL USE THEREOF” (BeiGene Switzerland GmbH, priority 2022, published 2025)
# Where a name gives a salt, the structure may show the parent alone.
# How the values were obtained:
# A375 = assay: Compounds cellular killing in A375; type: cell-based, human; settings: A375, 6 days, Cell Titer-Glo
# Description: (§1) Seeding cells A375 (1E3/well) or Calu-6 (2E3/well) into 96-well plate (Greiner: 655090), 100 ul/well. Incubation at 37° C., 5% CO2, overnight.
# (§2) Adding the fresh growth-medium containing the varying concentrations of compounds, 50 ul/well.
# (§3) Incubation at 37° C., 5% CO2, 6 days.
# (§4) The cell viability detected by Cell Titer-Glo (Promega, G7573). Add 70 µL/well of CellTiter-Glo® Reagent in each well.
# (§5) Allow the plates to incubate at room temperature for 10 minutes to stabilize luminescent signal.
# (§6) Analyze with Microplate Reader.
# (§7) Seeding cells A375 ([…] or Calu-6 (2E3/well) into 96-well plate (Greiner: 655090), 100 ul/well. Incubation at 37° C., […], overnight.
# Calu-6 = assay: Compounds cellular killing in Calu-6; type: cell-based, human; settings: Calu-6, 6 days, Cell Titer-Glo
# Description: as §1, §2, §3, §4, §5, §6, §7
Compound,"EC50 (A375; Homo sapiens, A-375, […])","Emax (A375; Homo sapiens, A-375, […])","EC50 (Calu-6; Homo sapiens, Calu-6, […])","Emax (Calu-6; Homo sapiens, Calu-6, […])",EC50 (A375),Emax (%) (A375),EC50 (Calu-6),Emax (%) (Calu-6),"EC50 (A375; Homo sapiens, A-375)","Emax (A375; Homo sapiens, A-375)",EC50 (Calu-6; Homo sapiens)
"CC[C@@]1(O)C(=O)OCc2c1cc1n(c2=O)Cc2c-1nc1cc(F)c(C)c3c1c2C(CN(C)CCO)CC3 (stereo partly drawn) [Example 2-54, (9S)-9-ethyl-5-fluoro-9-hydroxy-1-(((2-hydroxyethyl)(methyl)amino)methyl)-4-methyl-1,2,3,9,12,15-hexahydro-10H,13H-benzo[de]pyrano[3′,4′:6,7]indolizino[1,2-b]quinoline-10,13-dione]",0.9 nM,100%,0.2 nM,98.2%,,,,,,,
"CC[C@@]1(O)C(=O)OCc2c1cc1n(c2=O)Cc2c-1nc1cc(F)c(C)c3c1c2C(CNCCO)CC3 (stereo partly drawn) [Example 2-53, Nbenzyl (9S)-9-ethyl-5-fluoro-9-hydroxy-1-(((2-hydroxyethyl)amino)methyl)-4-methyl-1,2,3,9,12,15-hexahydro-10H,13H-benzo[de]pyrano[3′,4′:6,7]indolizino[1,2-b]quinoline-10,13-dione]",5.1 nM,99.9%,1.6 nM,98.7%,,,,,,,
"CC[C@@]1(O)C(=O)OCc2c1cc1n(c2=O)Cc2c-1nc1cc(F)cc3c1c2[C@@H](NC(=O)CO)CC3 [Example 2-31, N-((1S,9S)-9-ethyl-5-fluoro-9-hydroxy-10,13-dioxo-2,3,9,10,13,15-hexahydro-1H,12H-benzo[de]pyrano[3′,4′:6,7]indolizino[1,2-b]quinolin-1-yl)-2-hydroxyacetamide]",6.2 nM,98.9%,4.2 nM,98.9%,,,,,,,
"CC[C@@]1(O)C(=O)OCc2c1cc1n(c2=O)Cc2c-1nc1cc(F)cc3c1c2[C@@H](N)CC3 [Example 1-22, (1S,9S)-1-amino-9-ethyl-5-fluoro-9-hydroxy-1,2,3,9,12,15-hexahydro-10H,13H-benzo[de]pyrano[3′,4′:6,7]indolizino[1,2-b]quinoline-10,13-dione methanesulfonate]",1.4 nM,100%,0.6 nM,99.2%,,,,,,,
"CC[C@@]1(O)C(=O)OCc2c1cc1n(c2=O)Cc2c-1nc1cc(F)c(F)c3c1c2[C@@H](NC(=O)CO)CC3 [Example 2-30, N-((1S,9S)-9-ethyl-4,5-difluoro-9-hydroxy-10,13-dioxo-2,3,9,10,13,15-hexahydro-1H,12H-benzo[de]pyrano[3′,4′:6,7]indolizino[1,2-b]quinolin-1-yl)-2-hydroxyacetamide]",1.2 nM,98.9%,0.7 nM,98.9%,,,,,,,
"CC[C@@]1(O)C(=O)OCc2c1cc1n(c2=O)Cc2c-1nc1cc(F)c(C)c3c1c2[C@@H](N1CCC1CO)CC3 (single isomer, unassigned) [Example 2-56]",,,,,0.9 nM,100.0%,0.2 nM,99.0%,,,
"CC[C@@]1(O)C(=O)OCc2c1cc1n(c2=O)Cc2c-1nc1cc(O)cc3c1c2C(NC(C)=O)CC3 (stereo partly drawn) [Example 1-18, N-((9S)-9-ethyl-5,9-dihydroxy-10,13-dioxo-2,3,9,10,13,15-hexahydro-1H,12H-benzo[de]pyrano[3′,4′:6,7]indolizino[1,2-b]quinolin-1-yl)acetamide]",5.3 nM,99.9%,3.1 nM,99.5%,,,,,,,
"CC[C@@]1(O)C(=O)OCc2c1cc1n(c2=O)Cc2c-1nc1cc3c(c4c1c2[C@@H](NC(=O)CO)CC4)OCO3 [Example 2-11, N-((1S,10S)-10-ethyl-10-hydroxy-11,14-dioxo-2,3,10,11,14,16-hexahydro-1H,13H-benzo[de][1,3]dioxolo[4,5-g]pyrano[3′,4′:6,7]indolizino[1,2-b]quinolin-1-yl)-2-hydroxyacetamide]",,,,99.6%,,,,,10.2 nM,99.7%,3.2 nM
"CC[C@@]1(O)C(=O)OCc2c1cc1n(c2=O)Cc2c-1nc1cc(F)c(C)c3c1c2[C@@H](n1cc(CCO)nn1)CC3 [Example 2-23, (1S,9S)-9-ethyl-5-fluoro-9-hydroxy-1-(4-(2-hydroxyethyl)-1H-1,2,3-triazol-1-yl)-4-methyl-1,2,3,9,12,15-hexahydro-10H,13H-benzo[de]pyrano[3′,4′:6,7]indolizino[1,2-b]quinoline-10,13-dione]",3.3 nM,99.9%,1.9 nM,98.9%,,,,,,,
"CC[C@@]1(O)C(=O)OCc2c1cc1n(c2=O)Cc2c-1nc1cc(F)c(C)c3c1c2[C@@H](NC(=O)CO)CC3 [Example 1-A, reference compound]",2.2 nM,98.9%,1 nM,98.9%,,,,,,,
"CC[C@@]1(O)C(=O)OCc2c1cc1n(c2=O)Cc2c-1nc1cc(F)c(C)c3c1c2[C@@H](n1cc(CO)nn1)CC3 [Example 2-22, (1S,9S)-9-ethyl-5-fluoro-9-hydroxy-1-(4-(hydroxymethyl)-1H-1,2,3-triazol-1-yl)-4-methyl-1,2,3,9,12,15-hexahydro-10H,13H-benzo[de]pyrano[3′,4′:6,7]indolizino[1,2-b]quinoline-10,13-dione]",10.4 nM,97.7%,5.6 nM,98%,,,,,,,
"CC[C@@]1(O)C(=O)OCc2c1cc1n(c2=O)Cc2c-1nc1cc(OC)cc3c1c2[C@@H](NC(=O)CO)CC3 [Example 2-28, N-((1S,9S)-9-ethyl-9-hydroxy-5-methoxy-10,13-dioxo-2,3,9,10,13,15-hexahydro-1H,12H-benzo[de]pyrano[3′,4′:6,7]indolizino[1,2-b]quinolin-1-yl)-2-hydroxyacetamide]",13.8 nM,98.8%,7.4 nM,98.7%,,,,,,,
"CC[C@@]1(O)C(=O)OCc2c1cc1n(c2=O)Cc2c-1nc1cc(F)c(C)c3c1c2[C@@H](N(C)CCO)CC3 [Example 2-5, (1S,9S)-9-ethyl-5-fluoro-9-hydroxy-1-((2-hydroxyethyl)(methyl)amino)-4-methyl-1,2,3,9,12,15-hexahydro-10H,13H-benzo[de]pyrano[3′,4′:6,7]indolizino[1,2-b]quinoline-10,13-dione]",,,,98.9%,,,,,0.9 nM,98.8%,0.3 nM
"CC[C@@]1(O)C(=O)OCc2c1cc1n(c2=O)Cc2c-1nc1cc(F)c(C)c3c1c2C(CCO)CC3 (stereo partly drawn) [Example 2-46, (9S)-9-ethyl-5-fluoro-9-hydroxy-1-(2-hydroxyethyl)-4-methyl-1,2,3,9,12,15-hexahydro-10H,13H-benzo[de]pyrano[3′,4′:6,7]indolizino[1,2-b]quinoline-10,13-dione]",,,,98.1%,,,,,0.7 nM,100%,0.2 nM
"CC[C@@]1(O)C(=O)OCc2c1cc1n(c2=O)Cc2c-1nc1cc3c(c4c1c2[C@@H](N)CC4)OC(F)(F)O3 [Example 1-16, (1S,10S)-1-amino-10-ethyl-5,5-difluoro-10-hydroxy-1,2,3,10,13,16-hexahydro-11H,14H-benzo[de][1,3]dioxolo[4,5-g]pyrano[3′,4′:6,7]indolizino[1,2-b]quinoline-11,14-dione 2,2,2-trifluoroacetate salt]",1.6 nM,98.5%,0.6 nM,98.5%,,,,,,,
"CC[C@@]1(O)C(=O)OCc2c1cc1n(c2=O)Cc2c-1nc1cc(F)c(C)c3c1c2C(N1CCC1CO)CC3 (single isomer, unassigned) [Example 2-57]",,100%,,99.3%,1.9 nM,,0.7 nM,,,,
"CC[C@@]1(O)C(=O)OCc2c1cc1n(c2=O)Cc2c-1nc1cc(O)cc3c1c2[C@@H](NC(=O)CO)CC3 [Example 2-32, N-((1S,9S)-9-ethyl-5,9-dihydroxy-10,13-dioxo-2,3,9,10,13,15-hexahydro-1H,12H-benzo[de]pyrano[3′,4′:6,7]indolizino[1,2-b]quinolin-1-yl)-2-hydroxyacetamide]",368 nM,93.7%,81.5 nM,93.7%,,,,,,,
"CC[C@@]1(O)C(=O)OCc2c1cc1n(c2=O)Cc2c-1nc1cc(F)c(C)c3c1c2[C@@H](NC(=O)[C@@H]1C[C@H](O)CN1C)CC3 [Example 2-37, (2S,4S)—N-((1S,9S)-9-ethyl-5-fluoro-9-hydroxy-4-methyl-10,13-dioxo-2,3,9,10,13,15-hexahydro-1H,12H-benzo[de]pyrano[3′,4′:6,7]indolizino[1,2-b]quinolin-1-yl)-4-hydroxy-1-methylpyrrolidine-2-carboxamide]",3.7 nM,99.9%,1.5 nM,98.8%,,,,,,,
"CC[C@@]1(O)C(=O)OCc2c1cc1n(c2=O)Cc2c-1nc1cc(F)c(C)c3c1c2[C@@H](NC(=O)C1CCCC1O)CC3 (single isomer, unassigned) [Example 2-9]",,100%,,98.6%,1.9 nM,,0.7 nM,,,,
"CC[C@@]1(O)C(=O)OCc2c1cc1n(c2=O)Cc2c-1nc1cc(C)c(C)c3c1c2[C@@H](NC(=O)CO)CC3 [Example 2-1, N-((1S,9S)-9-ethyl-9-hydroxy-4,5-dimethyl-10,13-dioxo-2,3,9,10,13,15-hexahydro-1H,12H-benzo[de]pyrano[3′,4′:6,7]indolizino[1,2-b]quinolin-1-yl)-2-hydroxyacetamide]",23 nM,98%,10 nM,98%,,,,,,,
"CC[C@@]1(O)C(=O)OCc2c1cc1n(c2=O)Cc2c-1nc1cc(F)c(C)c3c1c2[C@@H](N1CCCC1CO)CC3 (single isomer, unassigned) [Example 2-49]",,99.9%,0.2 nM,99.1%,0.7 nM,,,,,,
